This note sets out measurements from paper PMC6993528, “Dehydroepiandrosterone and Its CYP7B1 Metabolite 7α-Hydroxydehydroepiandrosterone Regulates 11β-Hydroxysteroid Dehydrogenase 1 Directions in Rat Leydig Cells” (Frontiers in Endocrinology, 2020).

By EC50 is commonly meant the concentration at which the effect is half-maximal. Broadly, the IC50 is the concentration that inhibits the measured activity by half.

Molecules are shown by their SMILES. “Also recorded” adds a separate entry of the source.

The target of data set [1] is T1, 11β-HSD1 (Rattus norvegicus, UniProt P16232).
T1 construct: endogenous in cells; host or cells: primary rat adult Leydig cells (ALCs) from 90-day-old rat testes
T1 sequence (P16232 whole entry): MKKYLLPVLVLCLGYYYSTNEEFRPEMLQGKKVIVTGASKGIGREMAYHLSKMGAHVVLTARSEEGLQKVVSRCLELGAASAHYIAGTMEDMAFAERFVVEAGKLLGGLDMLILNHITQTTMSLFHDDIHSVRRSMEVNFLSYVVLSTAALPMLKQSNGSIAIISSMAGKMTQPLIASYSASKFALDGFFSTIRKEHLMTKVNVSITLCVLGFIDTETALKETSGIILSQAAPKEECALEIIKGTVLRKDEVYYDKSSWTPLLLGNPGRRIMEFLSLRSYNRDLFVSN
Briefly: 11β-HSD1 reductase assay in intact ALCs (DHC to CORT). Format: cell-based. The following applies: for lowest observable effective level (LOEL) on 11β-HSD1 reductase activity: 10 nM-10 μM tested. The source says:
(§1) Testes were processed for purification of Leydig cells. The progenitor (PLC), immature (ILC), and adult Leydig cells (ALC) were purified from rat testes at 21, 35, and 90 days postpartum, as described previously ([25], [26]). In brief, forty 21-day-old (for PLCs), eighteen 35-day-old (for ILCs), and six 90-day-old (for ALCs) rats were sacrificed, followed by removal and decapsulation of testes. Then, the testes were digested with collagenase and cells were separated by Percoll density gradient centrifugation. Purities of Leydig cell fractions were evaluated by histochemical staining of 3β-hydroxysteroid dehydrogenase (3β-HSD), with 0.4 mM etiocholanolone as an enzyme substrate ([27]). At least six isolations per cell types were performed.
(§2) 11β-HSD1 oxidase and reductase in intact ALCs were performed as previously described ([15]).11β-HSD1 oxidase activity assay tubes contained 25 nM CORT spiked with 60,000 dpm [^3H]-CORT (a concentration within the range of physiological levels of CORT). 11β-HSD1 reductase activity assay tubes contained 25 nM DHC spiked with 60,000 dpm [^3H]-DHC. 2.5 × 10^4 intact ALCs were added to start the reaction and the reaction was maintained in 34°C and 75 rpm shaking water bath for 30 min. The reactions were stopped by adding 2 ml ice-cold ether. The steroids were extracted, and the organic layer was dried under nitrogen. The steroids were separated chromatographically on thin layer plates in chloroform and methanol (90:10, v/v), and the radioactivity was measured using a scanning radiometer (System AR2000, Bioscan Inc., Washington, DC). The percentage conversion of CORT to DHC and DHC to CORT was calculated by dividing the radioactive counts identified as DHC (or CORT, respectively) by the total counts associated with CORT plus DHC.

The target in data set [2] is T1, 11β-HSD1. Description: 11β-HSD1 oxidase assay in intact ALCs (CORT to DHC). The conditions noted are these: for lowest observable effective level (LOEL) on 11β-HSD1 oxidase activity: 10 nM-10 μM tested. Type of data set: cell-based.
Text: as §1, §2

Data set [3] deals with T1, 11β-HSD1. Description: 11β-HSD1 reductase assay in ALC microsomes. Type of data set: biochemical. The conditions noted are these: for LOEL on 11β-HSD1 reductase activity in ALC microsomes: 10 nM-10 μM tested. The protocol:
(§3) The microsomes from ALCs were prepared as described previously ([6]). In brief, ALCs were homogenized in cold 0.01M PBS, pH 7.2, containing 0.25 M sucrose. Subsequently, the homogenates were centrifuged at 700 × g for 30 min and the supernatants were transferred to other tubes followed by centrifugation at 10,000 × g for 30 min. The resultant supernatants were centrifuged twice at 105,000 × g for 1 h. The pellets were resuspended and the protein contents were determined by Bio-Rad Protein Assay Kit (cat# 500–0006, Bio-Rad, Hercules, CA). Microsomes were used to assay 11β-HSD1 oxidoreductase activities.
(§4) 11β-HSD1 oxidase and reductase in microsomes were performed as previously described ([15]). For measurements in microsomal preparations, microsomes were incubated with 25 nM [^3H]-CORT and 0.2 mM NADP^+ for oxidase or 25 nM [^3H]-DHC and 0.2 mM NADPH for reductase activity in presence of different concentrations of DHEA or 7αOHD. For testing mode of action, microsomes were incubated with 2 nM to 10 μM [^3H]-CORT and 0.2 mM NADP^+ for oxidase or 2 nM to 10 μM [^3H]-DHC and 0.2 mM NADPH for reductase activity. 1.5 μg of ALC microsomes were added to initiate the reaction. The reactions were stopped by adding 2 ml ice-cold ether. The steroids were extracted, and the organic layer was dried under nitrogen. The steroids were separated chromatographically on thin layer plates in chloroform and methanol (90:10, v/v), and the radioactivity was measured using a scanning radiometer (System AR2000, Bioscan Inc., Washington, DC). The percentage conversion of CORT to DHC and DHC to CORT was calculated by dividing the radioactive counts identified as DHC (or CORT, respectively) by the total counts associated with CORT plus DHC.

In data set [4] the target is T1, 11β-HSD1. Briefly: 11β-HSD1 oxidase assay in ALC microsomes. Format: biochemical. Here is the method: as §3, §4
Where [5] appears, read: ALC microsomes, 0, 1 and 10 μM, Lineweaver-Burk plot.

Turning to `C[C@]12CC[C@H](O)CC1=C[C@@H](O)[C@@H]1[C@@H]2CC[C@]2(C)C(=O)CC[C@@H]12` [7αOHD, 7α-hydroxydehydroepiandrosterone], at 11β-HSD1 [1] (intact ALCs), the “lowest observable effective level (LOEL) on 11β-HSD1 reductase activity” value is 100 nM. Besides, the concentration for a half-maximal effect (EC50) on 11β-HSD1 [1] (intact ALCs, 25 nM DHC, 0.5 h, Mean ± SEM (n = 4), read-out: EC50 for stimulation of 11β-HSD1 reductase, intact Leydig cells) was determined as 700 ± 40 nM; on 11β-HSD1 [3] (ALC microsomes, 25 nM DHC plus 0.2 mM NADPH, Mean ± SEM (n = 4), read-out: EC50 for stimulation of 11β-HSD1 reductase, microsome), 200 ± 10 nM. For the same compound, the 11β-HSD1 reductase activity on 11β-HSD1 [1] (intact ALCs, at 1 μM) is 200 % of control; on 11β-HSD1 [1] (intact ALCs, at 10 μM), 200 % of control. Further, the “lowest observable effective level (LOEL) on 11β-HSD1 oxidase activity” value at 11β-HSD1 [2] (intact ALCs) was 100 nM. The IC50 at 11β-HSD1 [2] (intact ALCs, 25 nM CORT, 0.5 h, Mean ± SEM (n = 4), read-out: IC50 for inhibition of 11β-HSD1 oxidase, intact Leydig cells) was 1180 ± 120 nM; at 11β-HSD1 [4] (ALC microsomes, 25 nM CORT plus 0.2 mM NADP+, read-out: IC50 for inhibiting 11β-HSD1 oxidase activity in ALC microsomes), 930 nM. Further, the 11β-HSD1 oxidase activity is 60 % of control on 11β-HSD1 [2] (intact ALCs, at 1 μM) and 25 % of control on 11β-HSD1 [2] (intact ALCs, at 10 μM). The 11β-HSD1 oxidase/reductase ratio is on record as 50 % of control at 11β-HSD1 [2] (intact ALCs, at 1 μM) and 20 % of control on 11β-HSD1 [2] (intact ALCs, at 10 μM). For the same compound, the “LOEL on 11β-HSD1 reductase activity in ALC microsomes” value at 11β-HSD1 [3] (ALC microsomes) is 100 nM. Besides, the “effect on 11β-HSD1 reductase activity in ALC microsomes at the highest concentration” value on 11β-HSD1 [3] (at the highest concentration (100 nM)) is recorded as “did not affect”. For the same compound, the “mode of action on 11β-HSD1 oxidase” value at 11β-HSD1 [4] (setting [5]) was “competitive inhibitor”. Also, the “LOEL on 11β-HSD1 oxidase activity in ALC microsomes” value at 11β-HSD1 [4] (ALC microsomes, 10 nM-10 μM tested) came out at 100 nM. The “EC50/IC50 for 11β-HSD1 oxidase, microsome” value at 11β-HSD1 [4] (ALC microsomes, 25 nM CORT plus 0.2 mM NADP+, ND, not detected, Mean ± SEM (n = 4)) is listed as 0.93 ±0.14 ×10^−6 M. The “11β-HSD1 oxidase activity in ALC microsomes” value on 11β-HSD1 [4] (at 1 μM) is 60 % of control; at 11β-HSD1 [4] (at 10 μM), 25 % of control. The “11β-HSD1 oxidase/reductase ratio in ALC microsomes” value on 11β-HSD1 [4] (at 0.1–10 μM) is “significantly decreased”.
Regarding `C[C@]12CC[C@H](O)CC1=CC[C@@H]1[C@@H]2CC[C@]2(C)C(=O)CC[C@@H]12` [DHEA, dehydroepiandrosterone], half-maximal inhibition on 11β-HSD1 [1] (IC50) was put at 1040 ± 60 nM. Also, the “lowest observable effective level (LOEL) on 11β-HSD1 reductase activity” value at 11β-HSD1 [1] (intact ALCs) worked out at 100 nM. Moreover, the 11β-HSD1 reductase activity at 11β-HSD1 [1] (intact ALCs, at 10 μM) is 12 % of control. For the same compound, the response on 11β-HSD1 [2] was half-maximal at 970 ± 100 nM (EC50). Besides, on 11β-HSD1 [2] (intact ALCs), the “lowest observable effective level (LOEL) on 11β-HSD1 oxidase activity” value is listed as 100 nM. Further, on 11β-HSD1 [2] (intact ALCs, at 10 μM), the 11β-HSD1 oxidase activity is on record as 300 % of control and the “increase of 11β-HSD1 oxidase/reductase ratio” value was found to be 26 folds. The “mode of action on 11β-HSD1 reductase” value on 11β-HSD1 [3] (setting [5]) is “potent competitive inhibitor”. Besides, the “LOEL on 11β-HSD1 reductase activity in ALC microsomes” value on 11β-HSD1 [3] (ALC microsomes) came to 100 nM. Further, on 11β-HSD1 [3] (at 10 μM), the “11β-HSD1 reductase activity in ALC microsomes” value is 25 % of control. The “effect on microsomal 11β-HSD1 oxidase activity” value at 11β-HSD1 [4] (ALC microsomes, 10 nM-10 μM) is recorded as “did not affect; also recorded: nearly unchanged”. Also, the “effect on microsomal 11β-HSD1 oxidase activity at 10 μM” value on 11β-HSD1 [4] (ALC microsomes, at 10 μM) was “inhibited”. At 11β-HSD1 [4] (at 1 and 10 μM), the “11β-HSD1 oxidase/reductase ratio in ALC microsomes” value is on record as “significantly higher than control”.
